Measurements as given in ChEMBL document CHEMBL1128459, “Characterization of potent and selective antagonists at postsynaptic 5-HT1A receptors in a series of N4-substituted arylpiperazines” (J Med Chem, 1995).

What follows are compounds tested against 5-hydroxytryptamine receptor 1A (Rattus norvegicus) (UniProt P19327) (assay: Ki ratio measured as the Ki values of dopamine receptor to that of 5-hydroxytryptamine 1A receptor receptor.).
Chain of 5-hydroxytryptamine receptor 1A (Rattus norvegicus) (P19327 whole entry, looked up): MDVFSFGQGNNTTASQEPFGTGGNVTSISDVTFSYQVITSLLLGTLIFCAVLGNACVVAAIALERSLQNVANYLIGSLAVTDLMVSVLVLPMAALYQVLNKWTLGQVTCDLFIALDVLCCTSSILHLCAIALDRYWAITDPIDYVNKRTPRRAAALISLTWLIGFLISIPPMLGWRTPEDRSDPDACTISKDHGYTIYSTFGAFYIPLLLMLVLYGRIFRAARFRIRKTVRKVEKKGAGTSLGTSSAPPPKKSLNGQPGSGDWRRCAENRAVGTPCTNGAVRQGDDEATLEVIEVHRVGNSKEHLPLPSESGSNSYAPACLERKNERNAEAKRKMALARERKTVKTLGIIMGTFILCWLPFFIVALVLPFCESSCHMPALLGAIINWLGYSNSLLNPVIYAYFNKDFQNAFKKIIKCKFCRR

Question: With `c1ccc2c(c1)CC(N1CCN(c3cccc4c3OCCO4)CC1)C2` as the compound, how does the Ki ratio read?
Answer: 195

Question: `c1ccc2c(c1)CC2CCN1CCN(c2cccc3c2OCCO3)CC1` (stereo unspecified) was tested. Which Ki ratio did it give?
Answer: 79.4

Question: For `COc1ccccc1N1CCN(C[C@@H](C(=O)NC(C)(C)C)c2ccccc2)CC1`, which Ki ratio is on record?
Answer: 12

These compounds were tested against 5-hydroxytryptamine receptor 1A (Rattus norvegicus) (UniProt P19327) (assay: Ki ratio measured as the Ki values of dopamine receptor to that of 5-hydroxytryptamine 1A receptor).

Question: How did the Ki ratio turn out when `Clc1cccc2c1CC2CCN1CCN(c2cccc3c2OCCO3)CC1` (stereo unspecified) was run?
Answer: 26.9

Question: `c1ccc2c(c1)CC(N1CCN(c3cccc4c3OCCCO4)CC1)C2` was tested. Which Ki ratio did it give?
Answer: 51.3

Question: With `COc1cc2c(cc1OC)C(CCN1CCN(c3cccc4c3OCCO4)CC1)CC2` (stereo unspecified) as the compound, how does the Ki ratio read?
Answer: 83.4
